# Where two headings read alike, the source gives them in different places.
# Experiments:
# U-937 cells = assay: Anti-proliferation CTG assay, U-937; type: cell-based, human
# Experimental: (§1) A plethora of AML cell lines were treated with serial dilutions of Compound D. IC50 value of the anti-proliferation effect of Compound D (as determined in 72-hour CTG assays) in each cell line is summarized in Table 1.
# The effect of overexpression of GSPT1 on the anti-proliferative effect of Compound D and Compound E was determined in human histiocytic lymphoma cell line U937 and human leukemia cell line MOLM13. Treatment compounds (e.g., Compound D or Compound E) were titrated from 0.001 μM to 10 μM. Cell proliferation was measured by CellTiter-Glo cell viability assay at 48 hours after treatment. […] However, when exogenous GSPT1 was overproduced via the EF1α promoter, as shown in FIGS. 5A-5D, the anti-proliferative effect of Compound D and Compound E reduced.
# ML-2 cells = assay: Apoptosis (caspase 3/7 activation), ML-2; type: cell-based, human; conditions: for EC50: Homo sapiens, read-out: Compound D-induced Apoptosis EC50
# HL-60 cells = assay: Anti-proliferation 72-hour CTG assay, HL-60; type: cell-based; conditions: Homo sapiens; HL-60, 72-hour CTG assay; read-out: IC50 of the anti-proliferative effect
# Experimental: as §1
# AML-193 cells = assay: Apoptosis (caspase 3/7 activation), AML-193; type: cell-based, human; conditions: for EC50: Homo sapiens, read-out: Compound D-induced Apoptosis EC50
# KG-1 cells [1] = assay: Anti-proliferation CTG assay, KG-1; type: cell-based, human
# Experimental: The effect of depletion of GSPT1 on the anti-proliferative effect of compound Compound D and Compound E was also determined in human acute myelogenous leukemia cell lines AML and KG1. […]
# PARP = PARP cleavage, western blot, HNT-34; type: cell-based, human; conditions: HNT-34, 10 nM Compound D
# Experimental: The time course of GSPT1 degradation was monitored by western blot analysis of HNT-34 AML cells and normal PBMCs (FIGS. 32A-32D) following incubation with Compound D (1, 10, and 100 nM).
# KG-1 cells [2] = assay: Apoptosis (caspase 3/7 activation), KG-1; type: cell-based, human; conditions: for EC50: Homo sapiens, read-out: Compound D-induced Apoptosis EC50
# OCI-AML3 cells = assay: Anti-proliferation CTG assay, OCI-AML3; type: cell-based, human
# Experimental: as §1
# The effect of depletion of GSPT1 on the anti-proliferative effect of compound Compound D and Compound E was also determined in human acute myelogenous leukemia cell lines AML and KG1. Cells were infected with lentiviral vectors expressing control shRNA, shGSPT1-1 or shGSPT1-3 for 7 days and then treated with DMSO, Compound D or Compound E in a titration from 0.0001 μM to 1 μM. Two days after treatment, cell proliferation was measured by CellTiter-Glo cell viability. […] Both shGSPT1-1 and shGSPT1-3 reduced the expression of GSPT1, eRF1, and slightly of CRBN.
# ATF3 and DDIT3 mRNA = ATF3 and DDIT3 mRNA induction, healthy PBMCs; type: cell-based, human; conditions: by 8 hours
# Excerpt: The kinetics of induction of mRNA for UPR factors ATF3 and DDIT3 in HNT-34 cells also strongly differed from that in PBMCs. […] This is also consistent with the reduced cytotoxicity observed for Compound D in normal adult lymphocytes as compared with tumor cells (data not shown).
# [3] = tested on: translational readthrough; assay: AML2 readthrough assay (Fluc/Nluc-G36A reporter), OCI-AML2; type: cell-based, human; conditions: 300 μg/ml G418 or 200 nM Compound D
# Experimental: It is known that amino acid starvation causes GCN2 activation, which phosphorylates eIF2α. Because GSPT1 mediates normal translation termination, it is hypothesized that depletion of GSPT1 by Compound D may cause readthrough of stop codons. Whether the translational readthrough induced by Compound D contributes to the increased levels of p-eIF2α was investigated. OCI-AML2 cells stably expressing the Fluc/Nluc-G36A readthrough reporter were treated with 300 μg/ml G418 or 200 nM Compound D for 2, 4, 6, 8, 10, 12, or 16 hours. The levels of p-eIF2α were measured by immunoblot analysis. AML2 readthrough assay was conducted to measure the readthrough reporter.
# GSPT1 = GSPT1 (Homo sapiens, UniProt P15170+Q96SW2); assay: GSPT1 protein reduction, western analysis, AML-193; type: cell-based; parameters: reduction in GSPT1 protein level was evaluated in human normal PBMCs; endogenous in cells; host or cells: primary PBMCs from normal donors (ID 4328, 4379) and AML patients (ID 11SH, 09P6)
# Chain of GSPT1 (P15170 1-637 isoform P15170-3): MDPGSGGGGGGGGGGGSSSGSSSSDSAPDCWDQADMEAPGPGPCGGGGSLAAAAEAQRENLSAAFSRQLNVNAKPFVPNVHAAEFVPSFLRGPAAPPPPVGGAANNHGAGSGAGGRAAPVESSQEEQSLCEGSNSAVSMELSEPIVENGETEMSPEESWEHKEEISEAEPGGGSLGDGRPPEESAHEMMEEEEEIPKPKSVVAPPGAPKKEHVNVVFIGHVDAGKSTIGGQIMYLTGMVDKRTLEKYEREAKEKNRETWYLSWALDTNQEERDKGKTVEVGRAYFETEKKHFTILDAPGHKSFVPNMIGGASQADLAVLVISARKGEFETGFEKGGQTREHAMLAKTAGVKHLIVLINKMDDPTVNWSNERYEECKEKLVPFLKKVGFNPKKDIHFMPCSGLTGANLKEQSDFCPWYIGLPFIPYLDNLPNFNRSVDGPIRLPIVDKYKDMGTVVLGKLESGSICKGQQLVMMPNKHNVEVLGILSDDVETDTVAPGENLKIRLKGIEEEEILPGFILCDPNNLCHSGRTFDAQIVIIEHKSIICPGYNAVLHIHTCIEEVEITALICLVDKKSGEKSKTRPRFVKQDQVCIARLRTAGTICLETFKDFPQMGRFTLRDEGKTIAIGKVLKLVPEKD
# Chain of GSPT1 (Q96SW2 whole entry): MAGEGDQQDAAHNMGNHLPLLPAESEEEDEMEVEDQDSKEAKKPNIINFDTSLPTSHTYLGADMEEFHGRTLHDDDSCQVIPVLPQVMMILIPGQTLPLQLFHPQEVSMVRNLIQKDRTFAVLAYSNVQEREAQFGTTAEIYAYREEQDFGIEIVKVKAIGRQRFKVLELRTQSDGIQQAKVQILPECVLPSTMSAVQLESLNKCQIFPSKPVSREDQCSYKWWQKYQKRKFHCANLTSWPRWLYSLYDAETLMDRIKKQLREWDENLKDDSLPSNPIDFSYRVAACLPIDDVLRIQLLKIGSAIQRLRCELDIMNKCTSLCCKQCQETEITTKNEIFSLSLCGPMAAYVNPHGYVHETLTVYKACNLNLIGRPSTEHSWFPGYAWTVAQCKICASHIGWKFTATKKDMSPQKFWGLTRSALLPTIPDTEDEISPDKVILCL
# Chain of GSPT1 (Q16531 whole entry partner): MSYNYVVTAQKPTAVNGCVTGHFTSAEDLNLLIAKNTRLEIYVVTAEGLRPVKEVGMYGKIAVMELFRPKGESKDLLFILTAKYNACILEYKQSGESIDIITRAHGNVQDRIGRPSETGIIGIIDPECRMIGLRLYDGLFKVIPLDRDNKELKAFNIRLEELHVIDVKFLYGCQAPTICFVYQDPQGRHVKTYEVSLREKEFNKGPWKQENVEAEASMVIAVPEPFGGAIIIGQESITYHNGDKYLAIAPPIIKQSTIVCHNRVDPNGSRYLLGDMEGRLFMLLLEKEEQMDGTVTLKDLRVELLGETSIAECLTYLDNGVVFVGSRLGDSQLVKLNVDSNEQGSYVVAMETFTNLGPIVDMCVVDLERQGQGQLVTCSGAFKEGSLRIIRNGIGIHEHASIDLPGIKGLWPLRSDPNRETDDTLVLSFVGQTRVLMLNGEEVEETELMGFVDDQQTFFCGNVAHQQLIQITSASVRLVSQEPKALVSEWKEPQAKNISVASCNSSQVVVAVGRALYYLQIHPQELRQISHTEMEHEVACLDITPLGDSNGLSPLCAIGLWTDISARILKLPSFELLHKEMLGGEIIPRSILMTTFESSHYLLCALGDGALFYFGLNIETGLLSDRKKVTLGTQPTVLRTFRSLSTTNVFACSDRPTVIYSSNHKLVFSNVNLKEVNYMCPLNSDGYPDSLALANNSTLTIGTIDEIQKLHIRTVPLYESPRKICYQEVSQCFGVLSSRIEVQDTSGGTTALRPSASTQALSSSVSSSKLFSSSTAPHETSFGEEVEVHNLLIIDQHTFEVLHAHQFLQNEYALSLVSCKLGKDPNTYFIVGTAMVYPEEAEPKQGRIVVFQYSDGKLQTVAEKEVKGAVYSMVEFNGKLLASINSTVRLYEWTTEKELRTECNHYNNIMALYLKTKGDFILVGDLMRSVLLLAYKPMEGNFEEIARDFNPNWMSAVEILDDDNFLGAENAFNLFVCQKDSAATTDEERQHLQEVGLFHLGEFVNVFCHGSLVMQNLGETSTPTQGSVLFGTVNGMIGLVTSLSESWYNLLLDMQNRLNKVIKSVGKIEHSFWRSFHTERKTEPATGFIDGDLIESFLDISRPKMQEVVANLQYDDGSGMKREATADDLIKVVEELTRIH
# Experimental: The time course of the reduction in GSPT1 by Compound D also was studied for up to 48 hours. The progressive degradation of GSPT1 over the course of 1 to 20 hours was evident in the presence of all concentrations of Compound D studied from 3 to 300 nM in HNT-34, HL-60, and ML-2 cells, with little GSPT1 remaining by 20 hours at 100 or 300 nM Compound D in HNT-34 or HL-60 cells (FIG. 34 and FIG. 35C). Time-dependent reduction in GSPT1 was also observed in KG-1 and OCI-AML2 cells at 3 to 1000 nM Compound D, with little GSPT1 remaining in KG-1 cells at 100 to 300 nM at 24 hours or in OCI-AML2 cells at 300 and 1000 nM at 24 hours (FIG. 35D). Loss of GSPT1 occurred more slowly in Kasumi-1, AML-193, and […] cells. […] A positive association (r^2=0.50; […]
compound,measurement,setting,value
"O=C1CCC(N2Cc3cc(CNC(=O)C(F)(F)c4ccc(Cl)cc4)ccc3C2=O)C(=O)N1 (stereo not shown) [Compound D, 2-(4-chlorophenyl)-N-((2-(2,6-dioxopiperidin-3-yl)-1-oxoisoindolin-5-yl)methyl)-2,2-difluoroacetamide]",IC50,"U-937 cells; Homo sapiens, U-937, 72-hour CTG assay, read-out: IC50 of the anti-proliferative effect",74 nM
same,anti-proliferative effect,"U-937 cells; U937 CRBN -/- cells, 48 hours",completely abolished
same,cell proliferation (CellTiter-Glo),"U-937 cells; U937 parental cells, 0.001 μM to 10 μM, 48 hours",inhibited cell proliferation
same,EC50,"ML-2 cells; ML-2, 24 hr",62 nM
same,EC50,"ML-2 cells; ML-2, 48 hr",31 nM
same,EC50,"ML-2 cells; ML-2, 72 hr",21 nM
same,EC50,"ML-2 cells; ML-2, 96 hr",25 nM
same,"Average Percent Increase in Apoptosis at 123 nM Compound D, Apoptosis (12 hr)","ML-2 cells; ML-2, 123 nM, 12 hr",2%
same,"Average Percent Increase in Apoptosis at 123 nM Compound D, Apoptosis (24 hr)","ML-2 cells; ML-2, 123 nM, 24 hr",17%
same,"Average Percent Increase in Apoptosis at 123 nM Compound D, Apoptosis (48 hr)","ML-2 cells; ML-2, 123 nM, 48 hr",51%
same,IC50,HL-60 cells,20 nM
same,"Average Percent Increase in Apoptosis at 123 nM Compound D, Apoptosis (12 hr)","AML-193 cells; AML-193, 123 nM, 12 hr",0%
same,"Average Percent Increase in Apoptosis at 123 nM Compound D, Apoptosis (24 hr)","AML-193 cells; AML-193, 123 nM, 24 hr",5%
same,"Average Percent Increase in Apoptosis at 123 nM Compound D, Apoptosis (48 hr)","AML-193 cells; AML-193, 123 nM, 48 hr",40%
same,EC50,"AML-193 cells; AML-193, 48 hr",89 nM
same,EC50,"AML-193 cells; AML-193, 72 hr",47 nM
same,EC50,"AML-193 cells; AML-193, 96 hr",60 nM
same,IC50,"KG-1 cells [1]; Homo sapiens, KG-1, KG-1, Compound F 0 μM, read-out: Inhibition of Cell Proliferation by Compound D (CTG assay) IC50",10 nM
same,IC50,"KG-1 cells [1]; Homo sapiens, KG-1, KG-1, Compound F 30 μM, read-out: Inhibition of Cell Proliferation by Compound D (CTG assay) IC50",1500 nM
same,IC50,"KG-1 cells [1]; Homo sapiens, KG-1, 72-hour CTG assay, read-out: IC50 of the anti-proliferative effect",15 nM
same,cell proliferation (CellTiter-Glo),"KG-1 cells [1]; KG1 parental or control shRNA cells, 0.0001 μM to 1 μM, two days","exhibited anti-proliferative effect, particularly at high concentration"
same,IC50,KG-1 cells [1]; read-out: Inhibition of Cell Proliferation by Compound D (CTG assay) IC50,6800 nM
same,time of PARP cleavage,PARP,24 h
same,EC50,"KG-1 cells [2]; KG-1, 12 hr",53 nM
same,EC50,"KG-1 cells [2]; KG-1, 48 hr",39 nM
same,EC50,"KG-1 cells [2]; KG-1, 72 hr",26 nM
same,EC50,"KG-1 cells [2]; KG-1, 96 hr",25 nM
same,average percent increase in apoptosis,"KG-1 cells [2]; KG-1, 41 nM, 24 hour time point",11%
same,"Average Percent Increase in Apoptosis at 123 nM Compound D, Apoptosis (12 hr)","KG-1 cells [2]; KG-1, 123 nM, 12 hr",2%
same,"Average Percent Increase in Apoptosis at 123 nM Compound D, Apoptosis (24 hr)","KG-1 cells [2]; KG-1, 123 nM, 24 hr",16%
same,"Average Percent Increase in Apoptosis at 123 nM Compound D, Apoptosis (48 hr)","KG-1 cells [2]; KG-1, 123 nM, 48 hr",42%
same,cell proliferation (CellTiter-Glo),"OCI-AML3 cells; AML3 parental or control shRNA cells, 0.0001 μM to 1 μM, two days","exhibited anti-proliferative effect, particularly at high concentration"
same,IC50,"OCI-AML3 cells; Homo sapiens, OCI-AML-3, OCI-AML3, 72-hour CTG assay, read-out: IC50 of the anti-proliferative effect",3400 nM
same,induction of ATF3 or DDIT3 mRNA,ATF3 and DDIT3 mRNA,no induction
same,translational readthrough,[3],induced translational readthrough at a comparable level
same,Percent Reduction at 100 nM Compound D GSPTI (8 hr),"GSPT1; AML-193, 100 nM, 8 hr",49%
same,GSPT1 reduction,"GSPT1; AML-193, 300 nM Compound D, 8 hours",61%
